Data set [1] in a line: in vitro. To be noted: microsomes. Here is the method:
The reaction media contained liver microsomes (0.5 mg/mL), 1.0 mM β-nicotinamide adenine dinucleotide phosphate (β-NADPH), 3 mM MgCl2 phosphate buffer. Microsomal suspensions were pre-incubated with Tc3 for 3 min at 37℃. The reaction was initiated with the addition of β-NADPH and samples were collected at 0, 5, 15, 30 and 60 min. The negative control was excluded of β-NADPH. Midazolam was incubated similarly as a positive control substrate. At each time point, an aliquot was mixed acetonitrile. Samples were centrifuged and then supernatant was mixed with ultrapure water for LC-MS/MS analysis.

Data set [2] in a line: Pharmacokinetic study of vein administration. In kind it is in vivo. As to conditions: Balb/c mice, intravenous 10 mg/kg. As for the experimental part: Chromatographic conditions employed an ultimate AQ-C18 column (2.1 mm × 50 mm, 5.0 μm) and its temperature was set to 40℃. The mobile phase consisted of methanol and 0.1% formic acid, with a gradient elution program: 0-0.01 min, methanol 15%, 0.01-2 min, methanol 95%, 2-3 min, methanol 15%. The flow rate was set to 0.6 mL/min, the elution time was 3 min and ESI-MS in negative mode MRM was used for quantitative analysis. Masslynx 4.1 software was used for data acquisition and instrument control.
Stock solutions of Tc3 (1.0 mg/mL) and JBHDN (0.1 mg/mL) were prepared in methanol. A series of working solutions (5, 20, 100, 200, 800, 1000 and 2000 ng/mL) were added into blank mouse blood to prepare the standard curves. The JBHDN stock solution was diluted with 5% trichloroacetic acid-methanol to 100 ng/mL. In the same manner as the standard curve, quality control (QC) samples at 10 ng/mL, 450 ng/mL, and 1500 ng/mL were prepared. Next, Balb/c mice were administered intravenously (10 mg/kg). After 5 min, 15 min, 30 min, 1 h, 2 h, 4 h, 8 h, and 24 h, blood samples (20 μL) were collected from the tail vein of mice and mixed with internal standard JBHDN (100 ng/mL). The mixtures were then vortexed for 10 min at 4℃ and centrifuged at 5500 g for 10 min. The supernatant was mixed with 200 μL ultrapure water, and then injected into liquid chromatography-tandem mass spectrometry (LC-MS/MS) system for analysis.

The test system of data set [3] is shDFNA5 HepG2 cells. Description: Dose-response growth inhibition, GSDME knockdown cells. To be noted: Homo sapiens. In kind it is cell-based. Here is the method: The cells were counted with hemocytometer.
Briefly, the pLKO.1 or shRNA plasmids with psPAX2 and PMD2.G were transfected into HEK-293T cells via DNA transfection reagent (SignaGen®Laboratories, SL100688). And the cell supernatant contained Lenti-virus was collected after 24 hours. The Lenti-virus of shRNAs were used to infect the hepatic carcinoma cells and the stable-transfection cell lines were screened by puromycin (1 μg/mL) (Solarbio, P8230).

Data set [4] has as its system hepatocarcinoma PDXs. Description: Hepatocarcinoma PDXs treatment. To be noted: 20 mg/kg and 40 mg/kg i.p. ten times, day 20. In kind it is in vivo, Balb/c nude mice. From the text:
(§1) Balb/c nude mice (female, 6-week-old) were subcutaneously injected with 2 × 10^6 HepG2 cells on the left and right flanks to construct cell-derived xenografts (CDXs). The patient-derived xenografts (PDXs) samples were gifts from Dr Changliang Shan of Nankai University. C57 BL/6N mice (female, 5-week-old) were subcutaneously injected with 2 × 10^6 Hepa1-6 cells mixed with matrigel (ABW, 0827265) on the left and right flanks. The mice were inoculated with hepatic carcinoma CDXs or PDXs for at least four days, and treated (i.p.) by vehicle and Tc3. […] Tumor volume = 4π/3 × (Length/2) × (Width/2)^2. All animal experiments were carried out in accordance with the recommendations of Requirements of the Ethical Review System of Biomedical Research Involving Human by National Health and Family Planning Commission of China and Nankai University Ethics Committee with written informed consent complying with the Declaration of Helsinki (IAEC ID: 2023-STDWLL-000249).

Data set [5] concerns HepG2 CDXs. Put plainly: HepG2 CDXs treatment. In kind it is in vivo, Balb/c nude mice. To be noted: 20 mg/kg and 40 mg/kg i.p. five times.
Source text: as §1

For data set [6], the system named is HepG2 and SK-Hep1 cells. Put plainly: LDH release assay. To be noted: 0-4 μM, three days. In kind it is cell-based, human. Here is the method:
The hepatic carcinoma cells were seeded in 96-well plates and treated with indole analogues for three days. Of note, the compounds were added into DMEM medium supplemented with 1% FBS. The cellular supernatant was collected for LDH release detection by using LDH cytotoxicity assay kit (Beyotime, C0016). Statistical analysis was combined with the cell viability data tested by WST-1 cell proliferation and cytotoxicity assay kit (Beyotime, C0035).

Data set [7] deals with HepG2, SK-Hep1, and PLC-PRF5 cells. Put plainly: Cell proliferation assays (growth curve, colony formation). In kind it is cell-based, human. To be noted: 0-4 μM. As for the experimental part: For colony formation, hepatic carcinoma cells were seeded in 6-well plates and treated with Tc3 for almost 10 days, and the cell colonies were photographed for statistical analysis.

For data set [8], the system named is ROS. Description: Reactive Oxygen Species detection (DCFH-DA). In kind it is cell-based, human. As to conditions: HepG2 cells, 24 h. As for the experimental part: The hepatic carcinoma cells were seeded in 6-well plates and treated with Tc3 for 24 h. The cells were then stained by DCFH-DA (10 μM) for 20 min, washed with PBS buffer for two times, and the fluorescence intensity was captured by a confocal microscope (Leica, TCS SP8).

The test system of data set [9] is CD8^+ T cells. Put plainly: Fluorescence staining and flow cytometry of tumor-infiltrating cells. The class given is in vivo, C57 BL/6N mice. To be noted: Hepa1-6 CDXs, 10 mg/kg. Here is the method: The lymphocytes were isolated from the tumors and blocked by purified CD16/32 antibody. Next, the cells were stained with fluorescent-conjugated antibodies (FITC-CD11b, APC-F4/80, PE-CD86, Alexa Flour® 700-CD206, APC-Ly6G, FITC-CD45, APC-CD8a, Pacific Blue^TM-IFN-γ). The fluorescence intensity was measured by a FACS Calibur, and data were analyzed with FlowJo software.
The mice tumor tissues were embedded into the OCT reagent and sliced into 10 μm sections via the freezing microtome. The sections were fixed by paraformaldehyde, blocked by 3% bovine serum albumin (BSA, Beyotime, ST2254), and incubated with the primary antibodies overnight. In the second day, the sections were incubated with the fluorescent‐conjugated antibodies and 4′,6‐diamidino‐2‐phenylindole (DAPI, Solarbio, C0065) for nuclei. The tissue fluorescent images were captured by a confocal microscope (Leica, TCS SP8) and analyzed by imageJ software.

For data set [10], the system named is HepG2 cells. Description: Anti-tumor activity assay (IC50 value), cells counted after three days.
Protocol: (§2) For half maximal inhibitory concentrations (IC50) analysis, the hepatic carcinoma cells (HepG2, SK-Hep1 and PLC-PRF5) were seeded in 24-well plates respectively, then treated with drugs at concentration gradient for three days. The cells were counted with hemocytometer. […] A is the cell quantity of the control group and B is the cell quantity of the drug treated group. The cell inhibition rate was transformed using its logarithm. And the drug IC50 value were calculated by Graphpad Prsim 9 software with curve fitting of the drug concentration and log (cell inhibition rate).
Data set [11] concerns SK-Hep1 cells. The data set is described as above. As to conditions: Homo sapiens, SK-HEP1, 72 h, read-out: IC50 SK-Hep1.
Protocol: as §2
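Wherever fold increase in cellular potency is given: HepG2 cells exposed to a drug concentration series for 3 days, then counted with a hemocytometer, inhibition relative to untreated control cell number, IC50 obtained by curve fitting.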

Consider `CC(C)[C@H](N)C(=O)NCCCn1cc(/C=C2\S/C(=N\c3ccc(N4CCOCC4)cc3)N(Cc3ccc(F)cc3)C2=O)c2ccccc21` [Tc3], for which the half-life at 1 μM was found to be 0.825 h in [1] (human) and 1.93 h in data set [1] (mouse). The microsomal CLint at 1 μM in [1] (human) came out at 28 µL/min/mg; in [1] (mouse) it was 12 µL/min/mg. Further, in data set [2] (5 min-24 h), the plasma drug concentration lay within 12.4 to 1417.0 ng/mL. The same molecule returned an AUC(0-t) in data set [2] (mouse, whole blood) of 1520 ng·h/mL. Further, the half-life in data set [2] (mouse, whole blood, read-out: half-life elimination t1/2 (converted)) is 8.08 h. For the same molecule, the IC50 in data set [3] worked out at 4770 nM; in data set [10] (Homo sapiens, HepG2, 72 h, read-out: IC50 HepG2), 1370 nM; in [11], 1640 nM. In [4], the “tumor size and weight of PDXs” value was “significantly reduced the tumor size and weight”. Besides, the “growth rate and weight of HepG2 CDX tumors” value in data set [5] was “significantly smaller”. In addition, the LDH release levels entry in data set [6] was “highest LDH release”. Moreover, the “tumor proliferation (growth curve, colony formation)” value in data set [7] was “significantly inhibited tumor proliferation”. The “intracellular ROS (DCFH-DA probes)” value in [8] is “observably up-regulated”. In data set [9], the “infiltration of activated CD8^+ T cells in tumors” value is “significantly promoted”. Besides, the “fold increase in cellular potency” value in [10] (HepG2, compared to T1) is given as around 12 fold.

(Values after article PMC11729550, “Discovery of indole analogue Tc3 as a potent pyroptosis inducer and identification of its combination strategy against hepatic carcinoma” (Theranostics, 2025).)
